Results taken from patent publication US20110021455A1, “STERILISED SUCRALFATE GEL” (PIERRE FABRE DERMO-COSMETIQUE, priority 2008, published 2011).

Assays:
[1] = Sterilisation by gamma rays; assay type: physicochemical; settings: in the form of powder and gel; composition yellows
From the text: In fact, after various tests, it seemed that sucralfate, both in the form of powder and gel, is unstable during sterilisation by gamma rays since the composition yellows.

[2] = Sterilisation with ethylene oxide; assay type: physicochemical; settings: requires a long and costly desorption phase

stability during sterilisation by gamma rays [1]: unstable
adsorption of ethylene oxide on sucralfate during sterilisation [2]: substantial adsorption
Substance: sucralfate
